Test results reported in publication PMC5198786 (ChemMedChem, 2016).
Several values for one entry are separate records, joined by “and”; a condition that tells them apart may be missing. Equal values may be shown once. Entries after “also recorded” stand apart in the source; their conditions may differ. Read-outs that look alike come from different tables or passages of the source.

Tests used:
mAC2 = mAC2 (Homo sapiens, UniProt Q08462); assay: mAC assay, HEK293 cells stably expressing AC2; format: cell-based; details: for % of control AC2 / effect on selectively-stimulated cAMP response at AC2 (in words): 30 µM; for % of control AC2: HEK293-AC2, stimulated with 100 nM PMA, ± S.E.M.
mAC5 = mAC5 (Homo sapiens, UniProt O95622); assay: mAC assay, HEK293 cells stably expressing AC5; format: cell-based; details: for % of control AC5: 30 µM, HEK293-AC5, stimulated with 300 nM forskolin, ± S.E.M.
mAC1 = mAC1 (Homo sapiens, UniProt Q08828); assay: mAC assay, HEK293 cells stably expressing AC1; format: cell-based; details: for % of control AC1 / effect on selectively-stimulated cAMP response at AC1 (in words): 30 µM; for % of control AC1: HEK293-AC1, stimulated with 3 µM A23187, ± S.E.M.
B. pertussis ACT = B. pertussis ACT (Bordetella pertussis, UniProt P0DKX7); assay: cell-based; format: cell-based
J774A.1 cells = assay: Effect on the viability of J774A.1 cells; format: cell-based, murine
edema factor (EF) = edema factor (EF) (Bacillus anthracis, UniProt P40136); assay: biochemical
[1] = read-out: IC50 ACT inhibition in J774A.1 cells

mAC1, sequence (Q08828 whole entry): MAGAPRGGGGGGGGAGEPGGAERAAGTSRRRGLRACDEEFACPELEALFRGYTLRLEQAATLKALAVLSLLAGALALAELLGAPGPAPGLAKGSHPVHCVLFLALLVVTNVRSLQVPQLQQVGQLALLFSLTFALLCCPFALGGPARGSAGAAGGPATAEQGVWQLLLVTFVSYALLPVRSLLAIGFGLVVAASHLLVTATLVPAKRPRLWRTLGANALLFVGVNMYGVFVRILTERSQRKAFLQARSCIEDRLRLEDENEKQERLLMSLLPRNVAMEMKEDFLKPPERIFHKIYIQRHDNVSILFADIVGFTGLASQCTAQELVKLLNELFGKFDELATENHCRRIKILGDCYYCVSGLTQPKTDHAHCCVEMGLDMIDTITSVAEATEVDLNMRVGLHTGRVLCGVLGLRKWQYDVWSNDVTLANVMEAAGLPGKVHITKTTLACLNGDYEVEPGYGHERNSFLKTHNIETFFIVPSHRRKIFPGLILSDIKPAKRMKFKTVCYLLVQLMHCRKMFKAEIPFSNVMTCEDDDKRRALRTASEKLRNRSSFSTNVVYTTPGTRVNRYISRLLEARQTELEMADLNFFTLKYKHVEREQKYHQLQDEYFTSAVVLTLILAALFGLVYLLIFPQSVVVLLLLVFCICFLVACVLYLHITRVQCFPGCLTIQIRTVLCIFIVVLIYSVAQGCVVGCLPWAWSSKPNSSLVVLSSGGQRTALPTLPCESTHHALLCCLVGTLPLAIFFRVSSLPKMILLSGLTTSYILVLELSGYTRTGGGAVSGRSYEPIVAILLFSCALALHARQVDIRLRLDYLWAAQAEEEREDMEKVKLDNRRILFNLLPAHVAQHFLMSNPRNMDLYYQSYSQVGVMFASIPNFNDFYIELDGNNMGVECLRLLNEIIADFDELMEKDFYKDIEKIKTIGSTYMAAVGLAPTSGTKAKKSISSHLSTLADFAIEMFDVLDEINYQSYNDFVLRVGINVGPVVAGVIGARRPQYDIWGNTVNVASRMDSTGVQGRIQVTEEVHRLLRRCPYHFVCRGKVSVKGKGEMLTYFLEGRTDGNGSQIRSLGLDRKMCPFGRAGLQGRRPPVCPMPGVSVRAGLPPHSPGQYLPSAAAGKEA
mAC5, sequence (O95622 whole entry): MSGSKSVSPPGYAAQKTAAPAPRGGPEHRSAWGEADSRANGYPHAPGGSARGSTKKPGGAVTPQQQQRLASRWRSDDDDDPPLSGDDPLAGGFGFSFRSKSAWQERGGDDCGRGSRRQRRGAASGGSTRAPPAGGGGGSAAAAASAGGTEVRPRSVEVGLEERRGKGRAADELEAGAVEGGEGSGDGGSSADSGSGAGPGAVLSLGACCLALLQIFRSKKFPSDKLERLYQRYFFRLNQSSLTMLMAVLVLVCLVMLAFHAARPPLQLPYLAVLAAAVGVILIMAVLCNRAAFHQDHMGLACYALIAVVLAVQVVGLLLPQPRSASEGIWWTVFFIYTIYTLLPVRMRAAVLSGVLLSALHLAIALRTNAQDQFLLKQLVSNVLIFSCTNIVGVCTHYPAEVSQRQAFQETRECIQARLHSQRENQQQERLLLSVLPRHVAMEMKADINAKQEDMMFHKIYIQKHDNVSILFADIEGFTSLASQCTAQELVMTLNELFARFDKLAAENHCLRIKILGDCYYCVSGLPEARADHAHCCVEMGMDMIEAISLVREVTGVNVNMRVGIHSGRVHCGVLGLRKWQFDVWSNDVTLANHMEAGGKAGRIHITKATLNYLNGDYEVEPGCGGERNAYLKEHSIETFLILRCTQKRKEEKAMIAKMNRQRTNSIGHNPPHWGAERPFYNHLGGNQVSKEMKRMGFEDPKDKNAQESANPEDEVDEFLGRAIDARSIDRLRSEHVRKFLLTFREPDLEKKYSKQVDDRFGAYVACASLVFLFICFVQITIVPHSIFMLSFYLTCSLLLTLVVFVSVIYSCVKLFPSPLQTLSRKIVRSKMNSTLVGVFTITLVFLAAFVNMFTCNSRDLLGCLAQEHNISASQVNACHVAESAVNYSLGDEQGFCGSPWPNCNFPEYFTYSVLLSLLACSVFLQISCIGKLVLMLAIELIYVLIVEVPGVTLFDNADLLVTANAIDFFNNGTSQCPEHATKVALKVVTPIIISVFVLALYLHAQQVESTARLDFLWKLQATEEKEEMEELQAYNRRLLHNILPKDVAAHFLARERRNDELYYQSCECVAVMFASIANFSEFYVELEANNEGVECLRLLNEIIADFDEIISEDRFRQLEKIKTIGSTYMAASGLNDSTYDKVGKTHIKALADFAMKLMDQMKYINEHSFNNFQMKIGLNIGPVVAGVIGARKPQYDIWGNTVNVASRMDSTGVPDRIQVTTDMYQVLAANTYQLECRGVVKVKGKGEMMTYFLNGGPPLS
mAC2, sequence (Q08462 whole entry): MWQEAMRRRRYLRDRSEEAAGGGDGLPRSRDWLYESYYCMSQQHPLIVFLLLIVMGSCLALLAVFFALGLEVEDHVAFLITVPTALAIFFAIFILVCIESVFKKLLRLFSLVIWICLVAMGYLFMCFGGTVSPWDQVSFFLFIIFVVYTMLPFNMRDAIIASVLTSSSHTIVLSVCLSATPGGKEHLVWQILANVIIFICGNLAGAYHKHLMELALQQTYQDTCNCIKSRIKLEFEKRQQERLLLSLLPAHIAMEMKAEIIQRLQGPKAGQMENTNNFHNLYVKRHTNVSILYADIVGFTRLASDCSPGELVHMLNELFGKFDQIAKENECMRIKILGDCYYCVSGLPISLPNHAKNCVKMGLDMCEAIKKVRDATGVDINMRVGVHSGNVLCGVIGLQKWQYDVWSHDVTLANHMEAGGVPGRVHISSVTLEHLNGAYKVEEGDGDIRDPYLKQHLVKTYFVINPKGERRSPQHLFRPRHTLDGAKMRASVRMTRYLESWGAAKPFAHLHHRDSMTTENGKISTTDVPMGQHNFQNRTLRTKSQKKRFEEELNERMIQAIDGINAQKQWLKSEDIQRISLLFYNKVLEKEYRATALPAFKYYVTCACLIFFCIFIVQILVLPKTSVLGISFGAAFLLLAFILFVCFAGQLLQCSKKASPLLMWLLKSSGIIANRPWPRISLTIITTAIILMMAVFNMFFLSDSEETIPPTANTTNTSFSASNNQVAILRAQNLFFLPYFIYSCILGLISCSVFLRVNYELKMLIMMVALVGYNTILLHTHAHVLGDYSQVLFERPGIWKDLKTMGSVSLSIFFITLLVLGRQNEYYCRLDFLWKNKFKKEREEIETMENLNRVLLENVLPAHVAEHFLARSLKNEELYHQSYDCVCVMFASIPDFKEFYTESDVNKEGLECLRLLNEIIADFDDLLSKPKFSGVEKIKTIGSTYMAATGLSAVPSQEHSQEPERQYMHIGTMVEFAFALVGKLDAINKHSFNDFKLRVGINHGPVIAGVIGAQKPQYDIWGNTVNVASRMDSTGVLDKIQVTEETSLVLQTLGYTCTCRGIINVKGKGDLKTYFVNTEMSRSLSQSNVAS
edema factor (EF), sequence (P40136 whole entry, looked up): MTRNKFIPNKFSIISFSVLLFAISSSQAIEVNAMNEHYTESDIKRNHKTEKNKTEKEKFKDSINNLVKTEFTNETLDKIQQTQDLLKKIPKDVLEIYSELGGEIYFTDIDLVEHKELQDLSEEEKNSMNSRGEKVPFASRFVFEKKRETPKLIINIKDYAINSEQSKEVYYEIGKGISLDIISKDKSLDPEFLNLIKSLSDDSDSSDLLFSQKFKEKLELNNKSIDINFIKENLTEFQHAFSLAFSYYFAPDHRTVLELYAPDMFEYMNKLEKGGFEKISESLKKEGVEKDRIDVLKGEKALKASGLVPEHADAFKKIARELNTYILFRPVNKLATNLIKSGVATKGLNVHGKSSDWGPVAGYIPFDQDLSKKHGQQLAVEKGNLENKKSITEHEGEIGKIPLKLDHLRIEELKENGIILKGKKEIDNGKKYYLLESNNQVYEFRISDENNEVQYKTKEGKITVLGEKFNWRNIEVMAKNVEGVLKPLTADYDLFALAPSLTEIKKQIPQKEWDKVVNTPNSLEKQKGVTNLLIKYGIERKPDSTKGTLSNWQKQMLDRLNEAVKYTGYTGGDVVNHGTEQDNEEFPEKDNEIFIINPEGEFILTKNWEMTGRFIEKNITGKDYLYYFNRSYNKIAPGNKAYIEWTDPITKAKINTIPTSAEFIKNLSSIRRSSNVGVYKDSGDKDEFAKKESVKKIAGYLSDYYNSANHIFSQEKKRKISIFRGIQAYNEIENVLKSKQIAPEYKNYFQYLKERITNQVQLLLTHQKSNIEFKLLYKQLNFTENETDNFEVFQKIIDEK

| Structure (SMILES) | % of control AC2 (mAC2) | % of control AC5 (mAC5) | % of control AC1 (mAC1) | IC50 (B. pertussis ACT; [1]) | other results |
| --- | --- | --- | --- | --- | --- |
| Nc1ccc(Cl)cc1C(=O)NC(CO)Cn1cnc2c(N)ncnc21 (stereo not shown) [Compound 6] | 161±16% | 98±14% | 163±34% | > 15 µM | – |
| Nc1ncnc2c1ncn2CC(CO)NC(=O)Nc1ccc(Cl)cc1C(=O)O (stereo not shown) [Compound 7, 2-(3-(1-(6-amino-9H-purin-9-yl)-3-hydroxypropan-2-yl)ureido)-5-chlorobenzoic acid] | – | – | – | – | remaining activity at 30 µM (mAC2; HEK293, read-out: % of control AC2): 164 ± 23%; remaining activity at 30 µM (mAC5; HEK293, read-out: % of control AC5): 110 ± 16%; remaining activity at 30 µM (mAC1; HEK293, read-out: % of control AC1): 178 ± 31%; IC50 (B. pertussis ACT): > 15 µM |
| CC(C)OC(=O)[C@H](Cc1ccccc1)NP(=O)(COCC(Cn1cnc2c(N)ncnc21)NC(=O)c1cc(Cl)ccc1N)N[C@@H](Cc1ccccc1)C(=O)OC(C)C (stereo partly drawn) [Compound 14, Bis(L-phenylalanineisopropyl ester) prodrug of ((3-(6-amino-9H-purin-9yl)-2-N-(5-chloroanthraniloyl)propoxy)methyl)phosphonic acid] | 172±34% | 121±23% | 118±12% | > 15 µM | effect on selectively-stimulated cAMP response at AC2 (in words) (mAC2): slightly potentiated; effect on selectively-stimulated cAMP response at AC1 (in words) (mAC1): slightly potentiated |
| Nc1ccc(Cl)cc1C(=O)OCC(CO)Cn1cnc2c(N)ncnc21 (stereo not shown) [Compound 20, 9-(3-O-(5-Chloroanthraniloyl)-2-(hydroxymethyl)propyl)adenine] | 146±10% | 114±18% | 122±15% | > 15 µM | – |
| Nc1ccc(Cl)cc1C(=O)NCC(CO)Cn1cnc2c(N)ncnc21 (stereo not shown) [Compound 22, 9-(3-N-(5-Chloroanthraniloyl)-2-(hydroxymethyl)propyl)adenine] | 149±26% | 101±5% | 156±23% | > 15 µM | – |
| CC(C)OC(=O)[C@H](Cc1ccccc1)NP(=O)(COCC(COC(=O)c1cc(Cl)ccc1N)Cn1cnc2c(N)ncnc21)N[C@@H](Cc1ccccc1)C(=O)OC(C)C (stereo partly drawn) [Compound 26, Bis(L-phenylalanineisopropyl ester) prodrug of ((3-(6-amino-9H-purin-9yl)-2-(5-chloroanthraniloyloxymethyl)propoxy)methyl)phosphonic acid] | 149±27% | 97±11% | 94±10% | 12 µM and 12.1 µM | cytotoxic effect in J774A.1 cells (J774A.1 cells; 10 µM for 5h): no cytotoxic effect; also recorded: no observed cytotoxic effects; Viability (J774A.1 cells; 10 µM, 5 h, versus untreated control): 110% |
| CC(C)OC(=O)[C@H](Cc1ccccc1)NP(=O)(COCC(CNC(=O)c1cc(Cl)ccc1N)Cn1cnc2c(N)ncnc21)N[C@@H](Cc1ccccc1)C(=O)OC(C)C (stereo partly drawn) [Compound 29, Bis(L-phenylalanineisopropyl ester) prodrug of ((3-(6-amino-9H-purin-9yl)-2-(5-chloroanthraniloylaminomethyl)propoxy)methyl)phosphonic acid] | 193±48% | 118±18% | 189±15% | > 15 µM | effect on selectively-stimulated cAMP response at AC2 (in words) (mAC2): slightly potentiated; effect on selectively-stimulated cAMP response at AC1 (in words) (mAC1): slightly potentiated |
| Nc1ncnc2c1ncn2CCOCP(=O)(O)OP(=O)(O)OP(=O)(O)O [PMEApp, Adefovir diphosphate] | – | – | – | – | IC50 (edema factor (EF)): 0.0115 ± 0.0026 µM |
| Nc1ncnc2c1ncn2C1CCCO1 (stereo not shown) [SQ22536, reference compound] | 84±5% | 64±1% | – | – | – |
